Inhibition data for 30 compounds are collected here from patent publication US20080255192A1, “Methods and Compositions for Selectin Inhibition” (Wyeth, priority 2007, published 2008).

This test has as its target T1, P-selectin/PSGL-1 interaction (Homo sapiens, UniProt P16109).
T1 construct: comprised of the lectin and epidermal growth factor-like (EGF) domains expressed in CHO cells; made in house; host or cells: CHO cells (P-LE)
T1 sequence (P16109 42-198): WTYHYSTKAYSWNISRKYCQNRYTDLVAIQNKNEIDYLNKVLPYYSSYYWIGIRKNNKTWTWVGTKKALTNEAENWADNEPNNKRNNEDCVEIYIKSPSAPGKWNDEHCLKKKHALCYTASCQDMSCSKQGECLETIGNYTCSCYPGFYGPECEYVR
Kind of test: Biacore P-Selectin/PSGL-1 Inhibition Assay (surface plasmon resonance). It is filed as binding. As to conditions: 250 uM test compound, 500 nM P.LE, immobilized PSGL-1 19ek, 10% DMSO, pH 7.4. How it is done: Surface plasmon resonance assays were performed on a Biacore 3000 instrument (Biacore Inc. Piscataway, N.J.) at 25° C. at a flow rate of 30 μL/minute and each assay consisted of a 60-second equilibration, a 60-μL sample injection (kinject), and a 300-second dissociation.
A purified, monomeric, truncated form of human PSGL-1, “19ek”, that contained all the necessary P-selectin binding determinants (see Goetz, et al., J. Cell Biol., 1997, 137: 509-519; and Sako, et al., Cell, 1995, 83: 323-331) was biotinylated via amine chemistry (Sulfo-NHS-LC-Biotin, Peirce) at a unique C-terminal lysine residue (see Somers, et al., Cell, 2000, 103: 467-479) and immobilized on a Biacore SA sensor chip (Biacore Inc.), using an HBS-EP buffer (Biacore Inc.), and the target 600-700 RU. The coated chip was re-equilibrated with an HBS-P buffer (Biacore Inc.) to which 1 mM CaCl2 and 1 mM MgCl2 (both from Fisher) were added to ensure sufficient calcium for the calcium-dependent interaction between the receptor and the ligand.
Test compounds were incubated for 1 hour in a 1.1× Biacore assay buffer. Each solution was centrifuged through a 0.2 µm filter, using a 96-well plate format (Millipore). Glycyrrhizin tri-sodium salt (TCI) was prepared as a positive control in parallel with the test compounds, in the same manner described above.
A soluble recombinant truncated form of human P-selectin, P-LE, comprised of the lectin and epidermal growth factor-like (EGF) domains expressed in CHO cells (see Somers, et al., Cell, 2000, 103: 467-479) was added to each filtered test compound solution. Final concentrations of reagents were 500 nM P.LE, 250 or 500 μM test compound (depending on structure) or 1 mM glycyrrhizin, 10% DMSO, and 1× Biacore buffer ([…], 150 mM NaCl, 1 mM CaCl2, and 1 mM MgCl2 (all reagents from Fisher)), with a pH of 7.4. Compounds active at 250 μM were titrated to further define activity. Test samples were supplied to the Biacore instrument in a 96-well plate.
The Biacore raw data file was exported as a text file to an Excel spreadsheet, where the buffer blanks bracketing the samples were averaged for each Biacore instrument flow cell (Fc), and subtracted from the averaged uninhibited P.LE samples and from all the other samples. The reference signal from Fcl (uncoated) was then subtracted from its corresponding active (coated) signal for each injection, a process known as double referencing (see Myszka, J. Mol. Recognit., 1999, 12(5): 279-284). The percent inhibition of binding was calculated by dividing the reference-subtracted inhibited signal by the reference-subtracted uninhibited signal, subtracting this value from 1, and multiplying the resulting value by 100. The replicate percent inhibition values were averaged and expressed as the mean ±standard deviation. The inter-experiment standard deviation of calculated percent inhibitions in the Biacore assay was ±5.
Regarding `CCC(C)c1cccc2c(C(=O)O)c(O)c(C3(c4ccc(Cl)cc4)CC3)nc12` (stereo not drawn) [Compound 3, 8-sec-butyl-2-(1-(4-chlorophenyl)cyclopropyl)-3-hydroxyquinoline-4-carboxylic acid], the inhibition – broadly, the relative decrease from the control value, in per cent – at 250 µM is 18%.
With `CCC(c1ccccc1)c1nc2c(C)c(C)ccc2c(C(=O)O)c1O` (stereo not drawn) [Compound 128, 3-Hydroxy-7,8-dimethyl-2-(1-phenylpropyl)quinoline-4-carboxylic acid], testing at 250 µM gave an inhibition of 64%.
Under `CC(c1ccccc1)c1nc2c(C(F)(F)F)cccc2c(C(=O)O)c1O` (stereo not drawn) [Compound 123, 3-hydroxy-2-(1-phenylethyl)-8-(trifluoromethyl)quinoline-4-carboxylic acid] stands 49%; under `O=C(O)c1c(O)c(C2(c3ccc(F)cc3)CC2)nc2cc(Cl)ccc12` [Compound 68, 7-chloro-2-(1-(4-fluorophenyl)cyclopropyl)-3-hydroxyquinoline-4-carboxylic acid], at most 10%.
`O=C(O)c1c(O)c(C2(c3ccc(Cl)cc3)CC2)nc2ccc(O)cc12` [Compound 23, 2-(1-(4-chlorophenyl)cyclopropyl)-3,6-dihydroxyquinoline-4-carboxylic acid] registered an inhibition at 250 µM of at most 10%.
Compound `CC(C)c1cccc2c(C(=O)O)c(O)c(C3(c4ccc(Cl)cc4)CC3)nc12` [Compound 39, 2-(1-(4-chlorophenyl)cyclopropyl)-3-hydroxy-8-isopropylquinoline-4-carboxylic acid] showed an inhibition at 250 µM of 66%.
With `O=C(O)c1c(O)c(C2(c3ccccc3)CC2)nc2c(OC(F)(F)F)cccc12` [Compound 46, 3-hydroxy-2-(1-phenylcyclopropyl)-8-(trifluoromethoxy)quinoline-4-carboxylic acid], the inhibition at 250 µM was at most 10%.
Compound `COc1ccc2nc(C3(c4ccc(F)cc4)CC3)c(O)c(C(=O)O)c2c1` [Compound 79, 2-(1-(4-fluorophenyl)cyclopropyl)-3-hydroxy-6-methoxyquinoline-4-carboxylic acid] returned an inhibition at 250 µM of at most 10%.
As for `O=C(O)c1c(O)c(C2(c3ccc(Cl)cc3)CC2)nc2c(C(F)(F)F)cccc12` [Compound 38, 2-(1-(4-chlorophenyl)cyclopropyl)-3-hydroxy-8-(trifluoromethyl)quinoline-4-carboxylic acid], the inhibition at 250 µM amounted to 52%.
In turn, `CCc1cccc2c(C(=O)O)c(O)c(C3(c4ccccc4)CC3)nc12` [Compound 14, 8-ethyl-3-hydroxy-2-(1-phenylcyclopropyl)quinoline-4-carboxylic acid] showed an inhibition at 250 µM of 23%.
The result for `CCc1cccc2c(C(=O)O)c(O)c(C3(c4ccc(C)cc4)CC3)nc12` [Compound 82, 8-ethyl-2-(1-p-tolylcyclopropyl)-3-hydroxyquinoline-4-carboxylic acid] reads 38%; that for `O=C(O)c1c(O)c(C2(c3ccccc3)CC2)nc2cc(Cl)ccc12` [Compound 26, 7-chloro-3-hydroxy-2-(1-Phenylcyclopropyl)quinoline-4-carboxylic acid], at most 10%; that for `Cc1ccc(C2(c3nc4c(C)cc(C)cc4c(C(=O)O)c3O)CC2)cc1` [Compound 84, 3-hydroxy-6,8-dimethyl-2-(1-p-tolylcyclopropyl)quinoline-4-carboxylic acid], 11%.
`O=C(O)c1c(O)c(C2(c3ccc(OC(F)(F)F)cc3)CC2)nc2c(C(F)(F)F)cccc12` [Compound 56] returned an inhibition at 250 µM of 29%.
The result for `O=C(O)c1c(O)c(C2(c3ccc(Cl)cc3)CC2)nc2c(C3CC3)cccc12` [Compound 109, 2-[1-(4-chloro-phenyl)-cyclopropyl]-8-cyclopropyl-3-hydroxy-quinoline-4-carboxylic acid] reads 57%.
Compound `Cc1ccc(C2(c3nc4c(C)c(C)ccc4c(C(=O)O)c3O)CC2)cc1` [Compound 113, 3-hydroxy-7,8-dimethyl-2-(1-p-tolyl-cyclopropyl)-quinoline-4-carboxylic acid] displayed an inhibition at 250 µM of 24%.
Compound `O=C(O)c1c(O)c(C2(c3ccc(Cl)cc3)CC2)nc2c(C(F)(F)F)cc(C(F)(F)F)cc12` [Compound 105, 3-hydroxy-2-(1-(4-chlorophenyl)cyclopropyl)-6,8-bis(trifluoromethyl)quinoline-4-carboxylic acid] came in with an inhibition at 250 µM of at most 10%.
In turn, `O=C(O)c1c(O)c(C2(c3ccc(Cl)cc3)CC2)nc2c3c(ccc12)CCCC3` [Compound 36, 2-(1-(4-chlorophenyl)cyclopropyl)-3-hydroxy-7,8,9,10-tetrahydrobenzo[h]quinoline-4-carboxylic acid] had an inhibition at 250 µM of 67%.
`O=C(O)c1c(OC(=O)N2CCOCC2)c(Cc2ccc(Cl)cc2)nc2c3c(ccc12)CCCC3` [Compound 138, 2-(4-Chlorobenzyl)-3-[(morpholin-4-ylcarbonyl)oxy]-7,8,9,10-tetrahydrobenzo[h]quinoline-4-carboxylic acid] displayed an inhibition at 250 µM of 16%.
In turn, `Cc1ccc(C2(c3nc4c(C(C)C)cccc4c(C(=O)O)c3O)CC2)cc1` [Compound 86, 3-hydroxy-8-isopropyl-2-(1-p-tolylcyclopropyl)quinoline-4-carboxylic acid] gave an inhibition at 250 µM of 54%.
The compound `CCc1ccc2nc(C3(c4ccccc4)CC3)c(O)c(C(=O)O)c2c1` [Compound 27, 6-ethyl-3-hydroxy-2-(1-phenylcyclopropyl)quinoline-4-carboxylic acid] yielded an inhibition at 250 µM of at most 10%.
`O=C(O)c1c(O)c(C2(c3ccccc3)CC2)nc2c(Cl)cccc12` [Compound 47, 8-chloro-3-hydroxy-2-(1-phenylcyclopropyl)quinoline-4-carboxylic acid]: the inhibition at 250 µM was at most 10%.
The result for `O=C(O)c1c(O)c(C2(Cc3ccccc3)CC2)nc2c(C(F)(F)F)cccc12` [Compound 112, 2-(1-benzyl-cyclopropyl)-3-hydroxy-8-trifluoromethyl-quinoline-4-carboxylic acid] reads 43%; that for `Cc1ccc2c(C(=O)O)c(O)c(C3(c4ccccc4)CC3)nc2c1C` [Compound 43, 3-hydroxy-7,8-dimethyl-2-(1-phenylcyclopropyl)quinoline-4-carboxylic acid], 18%; that for `Cc1ccc2c(C(=O)O)c(O)c(C3(c4ccc(Cl)cc4)CC3)nc2c1` [Compound 13, 2-(1-(4-chlorophenyl)cyclopropyl)-3-hydroxy-7-methylquinoline-4-carboxylic acid], at most 10%.
As to `Cc1ccc2nc(C3(c4ccc(Cl)cc4)CC3)c(O)c(C(=O)O)c2c1` [Compound 19, 2-(1-(4-chlorophenyl)cyclopropyl)-3-hydroxy-6-methylquinoline-4-carboxylic acid], the inhibition at 250 µM is at most 10%.
Under `O=C(O)c1c(O)c(C2(c3ccc(Cl)cc3)CC2)nc2ccc(Br)cc12` [Compound 18, 6-bromo-2-(1-(4-chlorophenyl)cyclopropyl)-3-hydroxyquinoline-4-carboxylic acid] stands 28%; under `O=C(O)c1c(O)c(C2(c3ccc(F)cc3)CC2)nc2c(C(O)(C(F)(F)F)C(F)(F)F)cccc12` [Compound 76, 2-(1-(4-fluorophenyl)cyclopropyl)-8-(1,1,1,3,3,3-hexafluoro-2-hydroxypropan-2-yl)-3-hydroxyquinoline-4-carboxylic acid], 43%; under `O=C(O)c1c(O)c(C2(c3ccc(Br)cc3)CC2)nc2c(C(F)(F)F)cccc12` [Compound 53, 2-(1-(4-bromophenyl)cyclopropyl)-3-hydroxy-8-(trifluoromethyl)quinoline-4-carboxylic acid], 64%.
For the compound `O=C(O)c1c(O)c(C2(c3ccccc3)CC2)nc2c(C(F)(F)F)cc(-c3ccccc3)cc12` [Compound 102, 3-hydroxy-6-phenyl-2-(1-Phenylcyclopropyl)-8-(trifluoromethyl)quinoline-4-carboxylic acid], the inhibition at 250 µM was at most 10%.
